The source of these data is patent publication US12162856B2, “β-catenin and B-cell lymphoma 9 (BCL9) inhibitors” (H. LEE MOFFITT CANCER CENTER AND RESEARCH INSTITUTE, INC., priority 2019, dated 2024).

Counter-ions that a name gives are not always drawn. Like-named read-outs stand apart in the source and are kept apart here.

For experiment [1], the target named is T1, β-catenin/BCL9 PPI (Homo sapiens, UniProt P35222).
T1 construct: Wild-type full-length β-catenin were cloned into a pET-28b vector; made in house; host or cells: Escherichia coli BL21 DE3 (β-catenin); BCL9 peptide chemically synthesized
T1 sequence (P35222 1-781): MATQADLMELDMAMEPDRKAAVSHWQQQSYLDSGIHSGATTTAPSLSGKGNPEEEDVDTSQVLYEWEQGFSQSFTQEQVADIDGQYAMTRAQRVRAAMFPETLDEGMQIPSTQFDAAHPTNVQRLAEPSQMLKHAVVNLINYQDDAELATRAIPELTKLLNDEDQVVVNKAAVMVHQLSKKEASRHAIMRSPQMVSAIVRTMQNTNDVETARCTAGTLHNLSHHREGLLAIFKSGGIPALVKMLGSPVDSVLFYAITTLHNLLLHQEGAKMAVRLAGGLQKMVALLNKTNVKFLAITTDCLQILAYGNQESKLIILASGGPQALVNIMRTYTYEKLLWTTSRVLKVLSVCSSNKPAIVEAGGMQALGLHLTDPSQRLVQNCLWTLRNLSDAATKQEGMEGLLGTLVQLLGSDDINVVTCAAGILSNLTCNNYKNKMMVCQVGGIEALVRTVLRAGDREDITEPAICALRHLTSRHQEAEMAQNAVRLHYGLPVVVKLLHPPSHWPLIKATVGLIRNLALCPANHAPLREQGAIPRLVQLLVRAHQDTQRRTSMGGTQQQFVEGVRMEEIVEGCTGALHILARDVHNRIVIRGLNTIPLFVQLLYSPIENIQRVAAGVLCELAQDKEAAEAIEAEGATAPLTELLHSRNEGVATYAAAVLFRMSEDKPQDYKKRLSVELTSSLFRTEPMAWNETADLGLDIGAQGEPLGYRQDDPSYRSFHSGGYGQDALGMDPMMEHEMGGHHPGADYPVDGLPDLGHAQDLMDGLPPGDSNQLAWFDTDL
As to the kind of experiment: AlphaScreen competitive inhibition assay of the β-catenin/BCL9 PPI. It is filed as binding. The settings on record: mean ± SD, triplicate, Ki derived from IC50 (Nikolovska-Coleska equation). The method, then: Protein expression and purification. Wild-type full-length β-catenin were cloned into a pET-28b vector carrying a C-terminal 6×histidine (Novagen), and transformed into Escherichia coli BL21 DE3 (Novagen). Cells were cultured in LB medium with 30 μg/mL kanamycin until the OD600 was approximately 0.8, and then protein expression was induced with 400 μM of IPTG at 20° C. overnight. Cells were lysed by sonication. The proteins were purified by Ni-NTA affinity chromatography (30210, Qiagen) and dialyzed against a buffer containing 20 mM of Tris (pH 8.5), 100 mM NaCl, 10% glycerol, and 3 mM DTT. The purity of β-eaten in was greater than 95% as determined by SDS-PAGE gel analysis. Native non-denaturing gel electrophoresis was performed to confirm the homogeneity of the purified proteins. Thermal-shift assay was performed on an iCycler iQ Real Time Detection System (Bio-Rad) to monitor protein stability and detect protein aggregation. Protein unfolding was evaluated through measuring the S15 fluorescence changes of fluorescent dye Sypro Orange when interacting with wild-type or mutant β-catenin proteins. A temperature increment of […] was applied. CD spectra were measured on a J-815 spectropolarimeter (Jasco). All spectra were recorded at room temperature, and the baseline control containing all of the substances except protein. Sample were prepared at a concentration around 1-5 μM in a buffer of 10 mM potassium phosphate and 100 mM potassium fluoride at pH 7.0 to ensure that the transmission of light through the sample was not restricted. All proteins were stable and no aggregation was observed under storage or assay conditions. Proteins were aliquoted and stored at −80° C.
BCL9 peptide synthesis and purification. Human BCL9 (residues 350-375), and […] biotinylated human BCL9 (residues 350-375) were synthesized. All synthesized peptides were purified by HPLC with purity >95%. The structures were validated by LC/MS. The sequences are as follows (Ahx, 6-aminohexanoic acid).
AlphaScreen competitive inhibition assays. For the competitive inhibition assays of the β-catenin/BCL9 PPI, the negative control (equivalent to 0% inhibition) refers to 5.0 nM of biotinylated BCL9, 40 nM of His6-tagged β-catenin, and 10 μg/mL of donor and acceptor beads in a final volume of 25 μL assay buffer, but no tested inhibitor present. The positive control (equivalent to 100% inhibition) refers to 5.0 nM of biotinylated BCL9 and […] of donor and acceptor beads in a final volume of 25 μL assay buffer.
For the β-catenin/BCL9 assay, 5 nM of biotinylated BCL9 and 40 nM of His6-tagged β-catenin were incubated in assay buffer at 4° C. for 30 min. Different concentrations of the tested inhibitor were added and incubated in 20 μL assay buffer at 4° C. for another 1 h. All of the above assay plates were covered and gently mixed on an orbital shaker. The donor and acceptor beads were then added to the plates to a final concentration of 10 μg/mL in 25 μL assay buffer. The mixture was incubated for 1 h at 4° C. before detection. The IC50 value was determined by nonlinear least-square analysis of GraphPad Prism 5.0. The Ki values were derived from the IC50 values using a method reported by Nikolovska-Coleska et al (Nikolovska-Coleska, Z.; Wang, R.; Fang, X.; Pan, H.; Tomita, Y.; Li, P.; Roller, P. P.; Krajewski, K.; Saito, N. G.; Stuckey, J. A.; Wang, S. Development and optimization of a binding assay for the XIAP BIR3 domain using fluorescence polarization. Anal. Biochem. 2004, 332, 261-273.). The assays were conducted under the conditions required by Nikolovska-Coleska et al.'s equation for determining the Ki values. All of the experiments were performed in triplicate. The results were expressed as mean±standard deviation.
(In general: Bead proximity is the source of the signal in Alpha formats.)

The target of experiment [2] is T2, β-catenin/BCL9 interaction (Homo sapiens, UniProt P35222).
T2 sequence (P35222 1-781): T1 sequence (P35222 1-781)
The settings on record: reported in the literature; cited from earlier work.

For experiment [3], the system named is Wnt target genes. To be noted: reported in the literature; cited from earlier work.
The mark [4] stands for this setting: experiment 3, read-out: Ki (μM ± SD) experiment 3.
Setting [5] is: experiment 4, read-out: Ki (μM ± SD) experiment 4.

Turning to `CC(=O)Nc1cc(F)cc(C(=O)N2CCN(C(=O)c3ccc(O[C@H]4CCNC4)c(C4CCCCC4)c3)[C@@H](C(C)C)C2)c1` [Compound 15, N-(3-((S)-4-(3-Cyclohexyl-4-(((S)-pyrrolidin-3-yl)oxy)benzoyl)-3-isopropylpiperazine-1-carbonyl)-5-fluorophenyl) acetamide trifluoroacetate], the inhibition constant (Ki) came out at 280 ± 27 µM in experiment [1] (setting [4]) and 290 ± 61 µM in experiment [1] (setting [5]).

In the case of `CC(=O)Nc1cc(F)cc(C(=O)N2CCN(C(=O)c3ccc(O[C@H]4CCNC4)c(C4CCCCC4)c3)[C@@H](CC(C)C)C2)c1` [Compound 16, N-(3-((S)-4-(3-Cyclohexyl-4-(((S)-pyrrolidin-3-yl)oxy)benzoyl)-3-isobutylpiperazine-1-carbonyl)-5-fluorophenyl)acetamide trifluoroacetate], the Ki in experiment [1] (setting [4]) was found to be 330 ± 43 µM; in experiment [1] (setting [5]), 200 ± 20 µM.

Regarding `CC(C)c1cc2c(c(O)c1O)[C@@]1(C(=O)O)CCCC(C)(C)[C@@H]1CC2` [camosic acid, Carnosic acid], the “disruption of the β-catenin/BCL9 interaction” value in experiment [2] is “can disrupt the β-catenin/BCL9 interaction”. In addition, the “suppression of Wnt target gene / β-catenin-dependent transcription” value in experiment [3] is reported as “inhibit β-catenin-dependent transcription”.

As usually defined, the Ki is the dissociation constant of the complex between target and ligand, obtained from inhibition or displacement.
